Test results reported in patent US20110178104A1, “Anti-Heparin Compounds” (POLYMEDIX INC., priority 2010, published 2011).
“And” between values parts separate entries of the source, which are not always exact repeats. Identical values can stand only once.

Tests used:
enoxaparin = test: FXa amidolytic assay (Example 10), enoxaparin; conditions: read-out: Enox FXa EC50; enoxaparin 0.1 ug/ml; human antithrombin, bovine Factor Xa
Method: (§1) Two μl of test agent are added (range between 0.01 and 23 ug/ml) and incubated for 5 minutes at 23° C. Bovine Factor Xa was added to a final concentration of 0.636 nkat/mL and incubated for a further 10 minutes at 23° C.

fondaparinux = test: FXa amidolytic assay (Example 10), fondaparinux; conditions: read-out: Fondap FXa EC50; fondaparinux 0.02 μg/mL; human antithrombin, bovine Factor Xa
Method: as §1

tinzaparin = test: FXa amidolytic assay (Example 10), tinzaparin; conditions: read-out: Tinzap FXa EC50; tinzaparin 0.1 ug/ml; human antithrombin, bovine Factor Xa
Method: as §1

Unfractionated heparin = test: aPTT clotting assay, UFH 0.4 U/mL in plasma (Example 10); type: biochemical; conditions: unfractionated heparin 0.4 U/mL in plasma; aPTT clotting
Method: aPTT clotting Assay: Unfractionated heparin was mixed with plasma at a final concentration of 0.4 U/mL (or concentration which increases aPTT time to between 120 and 300 seconds). […] The ACL Elite Hemostasis analyzer (Beckman Coulter™) was used to add aPTT reagent (HemosIL SynthASil) to supplemented plasma. Clotting was initiated by addition of CaCl2 and time to clot was recorded.

SMILES | EC50 (enoxaparin) | EC50 (fondaparinux) | EC50 (tinzaparin) | EC50 (Unfractionated heparin)
COc1ccc(NC(=O)[C@H](CCCNC(N)=O)NC(=O)c2cc(NC(=O)[C@H](CCCCN)NC(=O)c3cc(NC(=O)[C@H](CCCCN)NC(=O)c4cc(NC(=O)[C@@H](N)CCCCN)ccc4OC)ccc3OC)ccc2OC)cc1C(N)=O [Compound 259] | 267 nM | 2880 nM | 180 nM | 1570 nM
COc1ccc(NC(=O)[C@H](CCCCN)NC(=O)c2cc(NC(=O)[C@H](CCCCN)NC(=O)c3cc(NC(=O)[C@H](CCCCN)NC(=O)c4cc(NC(=O)[C@@H](N)CCCCN)ccc4OC)ccc3OC)ccc2OC)cc1C(=O)NCC(=O)O [Compound 260] | 399 nM and 284 nM | 5080 nM and 3970 nM | 247 nM and 215 nM | 1660 nM and 1410 nM
COc1ccc(NC(=O)[C@H](CCCCN)NC(=O)c2cc(NC(=O)[C@H](CCCCN)NC(=O)c3cc(NC(=O)[C@H](CCCCN)NC(=O)c4cc(NC(=O)[C@@H](N)CCCCN)ccc4OC)ccc3OC)ccc2OC)cc1C(=O)N[C@@H](C)C(=O)O [Compound 262] | 344 nM | 5570 nM | 213 nM | 1260 nM
COc1ccc(NC(=O)[C@H](CCCCN)NC(=O)c2cc(NC(=O)[C@@H](N)CCCCN)ccc2OC)cc1C(=O)N[C@@H](CCCCN)C(=O)Nc1ccc(OC)c(C(=O)N[C@@H](CCCCN)C(=O)Nc2ccc(OC)c(C(=O)N[C@H](Cc3ccccc3)C(=O)O)c2)c1 [Compound 264] | 731 nM | > 10000 nM | 365 nM | 1380 nM
COc1ccc(NC(=O)[C@H](CCCCN)NC(=O)c2cc(NC(=O)[C@@H](N)CCCCN)ccc2OC)cc1C(=O)N[C@@H](CCCCN)C(=O)Nc1ccc(OC)c(C(=O)N[C@@H](CCCCN)C(=O)Nc2ccc(OC)c(C(=O)N[C@H](C(=O)O)C(C)C)c2)c1 [Compound 267] | 543 nM | 6990 nM | 313 nM | 1670 nM
COc1ccc(NC(=O)[C@H](CCCCN)NC(=O)c2cc(NC(=O)[C@@H](N)CCCCN)ccc2OC)cc1C(=O)N[C@@H](CCCCN)C(=O)Nc1ccc(SC)c(C(=O)N[C@@H](CCCCN)C(=O)Nc2ccc(SC)c(C(N)=O)c2)c1 [Compound 268] | > 5000 nM | > 10000 nM | > 5000 nM | > 10000 nM
COc1ccc(NC(=O)[C@H](CCCCN)NC(=O)c2cc(NC(=O)[C@H](CCCCN)NC(=O)c3cc(NC(=O)[C@@H](N)CCCCN)ccc3OC)ccc2OC)cc1C(=O)N[C@@H](CCCCN)C(=O)Nc1ccc(OCC(=O)O)c(C(N)=O)c1 [Compound 269] | 247 nM | 5110 nM | 165 nM | 1780 nM
COc1ccc(NC(=O)[C@H](CCCCN)NC(=O)c2cc(NC(=O)[C@H](CCCCN)NC(=O)c3cc(NC(=O)[C@H](CCCCN)NC(=O)c4cc(NC(=O)[C@@H](N)CCCCN)ccc4OC)ccc3OC)ccc2OCC(=O)O)cc1C(N)=O [Compound 270] | 533 nM | 4050 nM | 349 nM | 1250 nM
COc1ccc(NC(=O)[C@H](CCCCN)NC(=O)c2cc(NC(=O)[C@H](CCCCN)NC(=O)c3cc(NC(=O)[C@H](CCCCN)NC(=O)c4cc(NC(=O)[C@@H](N)CCCCN)ccc4OC)ccc3OCC(=O)O)ccc2OC)cc1C(N)=O [Compound 271] | 219 nM | 3120 nM | 135 nM | 1640 nM
COc1ccc(NC(=O)[C@H](CCCCN)NC(=O)c2cc(NC(=O)[C@H](CCCCN)NC(=O)c3cc(NC(=O)[C@H](CCCCN)NC(=O)c4cc(NC(=O)[C@@H](N)CCCCN)ccc4OCC(=O)O)ccc3OC)ccc2OC)cc1C(N)=O [Compound 272] | 541 nM | 7690 nM | 240 nM | 3090 nM
COc1ccc(NC(=O)[C@H](CCCCN)NC(=O)c2cc(NC(=O)[C@H](CCCCN)NC(=O)c3cc(NC(=O)[C@H](CCCCN)NC(=O)c4cc(NC(=O)[C@@H](N)CCCCN)ccc4OC)ccc3OC)ccc2OC)cc1C(=O)N[C@@H](CCCNC(N)=O)C(=O)O [Compound 273] | 319 nM | 3800 nM | 202 nM | 1550 nM
COc1ccc(NC(=O)[C@H](CCCCN)NC(=O)c2cc(NC(=O)[C@H](CCCCN)NC(=O)c3cc(NC(=O)[C@H](CCCCN)NC(=O)c4cc(NC(=O)[C@@H](N)CCCCN)ccc4OC)ccc3OC)ccc2OC)cc1C(=O)NCCCCCC(=O)O [Compound 274] | 558 nM | 7020 nM | 299 nM | 1630 nM
COc1ccc(NC(=O)[C@H](CCCCN)NC(=O)c2cc(NC(=O)[C@H](CCCCN)NC(=O)c3cc(NC(=O)[C@H](CCCCN)NC(=O)c4cc(NC(=O)[C@@H](N)CCCCN)ccc4OC)ccc3OC)ccc2OC)cc1C(=O)N[C@@H](CCC(=O)O)C(=O)O [Compound 276] | 625 nM | 5180 nM | 363 nM | 2330 nM
COc1ccc(NC(=O)[C@H](CCCCN)NC(=O)c2cc(NC(=O)[C@@H](N)CCCCN)ccc2OC)cc1C(=O)N[C@@H](CCCCN)C(=O)Nc1ccc(OC)c(C(=O)N[C@@H](CCCCN)C(=O)Nc2ccc(OC)c(C(=O)N[C@H](C)C(=O)O)c2)c1 [Compound 277] | 581 nM | 10800 nM | 285 nM | 1550 nM
COc1ccc(NC(=O)[C@@H](CCCNC(=N)N)NC(=O)c2cc(NC(=O)[C@@H](CCCNC(=N)N)NC(=O)c3cc(NC(=O)[C@@H](CCCNC(=N)N)NC(=O)c4cc(NC(=O)[C@H](N)CCCNC(=N)N)ccc4OC)ccc3OC)ccc2OC)cc1C(=O)NCCC(=O)O [Compound 279] | 154 nM | 775 nM | 134 nM | 1950 nM
COc1ccc(NC(=O)[C@H](N)CCCNC(=N)N)cc1C(=O)N[C@H](CCCNC(=N)N)C(=O)Nc1ccc(OC)c(C(=O)N[C@H](CCCNC(=N)N)C(=O)Nc2ccc(OC)c(C(=O)N[C@H](CCCNC(=N)N)C(=O)Nc3ccc(OCC(=O)O)c(C(N)=O)c3)c2)c1 [Compound 280] | 133 nM | 581 nM | 120 nM | 1630 nM
COc1ccc(NC(=O)[C@@H](CCCNC(=N)N)NC(=O)c2cc(NC(=O)[C@@H](CCCNC(=N)N)NC(=O)c3cc(NC(=O)[C@@H](CCCNC(=N)N)NC(=O)c4cc(NC(=O)[C@H](N)CCCNC(=N)N)ccc4OC)ccc3OCC(=O)O)ccc2OC)cc1C(N)=O [Compound 282] | 121 nM | 424 nM | 114 nM | 2000 nM
COc1ccc(NC(=O)[C@H](CCCNC(=N)N)NC(=O)c2cc(NC(=O)[C@H](CCCNC(=N)N)NC(=O)c3cc(NC(=O)[C@H](CCCNC(=N)N)NC(=O)c4cc(NC(=O)[C@@H](N)CCCNC(=N)N)ccc4OC)ccc3OC)ccc2OC)cc1C(=O)NCCC(=O)O [Compound 285] | 169 nM | 799 nM | 151 nM | 2150 nM
COc1ccc(NC(=O)[C@H](CCCNC(=N)N)NC(=O)c2cc(NC(=O)[C@H](CCCNC(=N)N)NC(=O)c3cc(NC(=O)[C@@H](N)CCCNC(=N)N)ccc3OC)ccc2OC)cc1C(=O)N[C@@H](CCCNC(=N)N)C(=O)Nc1ccc(OCC(=O)O)c(C(N)=O)c1 [Compound 286] | 118 nM | 526 nM | 104 nM | 1900 nM
COc1ccc(NC(=O)[C@H](CCCNC(=N)N)NC(=O)c2cc(NC(=O)[C@H](CCCNC(=N)N)NC(=O)c3cc(NC(=O)[C@H](CCCNC(=N)N)NC(=O)c4cc(NC(=O)[C@@H](N)CCCNC(=N)N)ccc4OCC(=O)O)ccc3OC)ccc2OC)cc1C(N)=O [Compound 289] | 133 nM | 508 nM | 108 nM | 1760 nM
COc1ccc(NC(=O)[C@H](CCCCN)NC(=O)c2cc(NC(=O)[C@H](CCCCN)NC(=O)c3cc(NC(=O)[C@H](CCCCN)NC(=O)c4cc(NC(=O)[C@H](CCCCN)NC(=O)CC(=O)O)ccc4OC)ccc3OC)ccc2OC)cc1C(N)=O [Compound 290] | 318 nM | 1880 nM | 212 nM | 2270 nM
COc1ccc(NC(=O)[C@@H](CCCNC(=N)N)NC(=O)c2cc(NC(=O)[C@@H](CCCNC(=N)N)NC(=O)c3cc(NC(=O)[C@@H](CCCNC(=N)N)NC(=O)c4cc(NC(C)=O)ccc4OC)ccc3OC)ccc2OC)cc1C(=O)NCC(=O)O [Compound 294] | 264 nM | 244 nM | 264 nM | 2740 nM
COc1ccc(NC(=O)[C@@H](CCCNC(=N)N)NC(=O)c2cc(NC(=O)[C@@H](CCCNC(=N)N)NC(=O)c3cc(NC(=O)[C@@H](CCCNC(=N)N)NC(=O)c4cc(NC(C)=O)ccc4OC)ccc3OC)ccc2OC)cc1C(=O)NCCC(=O)O [Compound 295] | 312 nM | 387 nM | 325 nM | 3990 nM
COc1ccc(NC(=O)[C@@H](CCCNC(=N)N)NC(=O)c2cc(NC(=O)[C@@H](CCCNC(=N)N)NC(=O)c3cc(NC(=O)[C@@H](CCCNC(=N)N)NC(=O)c4cc(NC(C)=O)ccc4OC)ccc3OC)ccc2OC)cc1C(=O)N[C@@H](Cc1ccc(O)cc1)C(=O)O [Compound 296] | 286 nM | 437 nM | 296 nM | 15300 nM
COc1ccc(NC(=O)[C@H](CCCNC(=N)N)NC(=O)c2cc(NC(=O)[C@H](CCCNC(=N)N)NC(=O)c3cc(NC(=O)[C@H](CCCNC(=N)N)NC(=O)c4cc(NC(C)=O)ccc4OC)ccc3OC)ccc2OC)cc1C(=O)NCC(=O)O [Compound 299] | 243 nM | 265 nM | 242 nM | 2900 nM
COc1ccc(NC(=O)[C@H](CCCNC(=N)N)NC(=O)c2cc(NC(=O)[C@H](CCCNC(=N)N)NC(=O)c3cc(NC(=O)[C@H](CCCNC(=N)N)NC(=O)c4cc(NC(C)=O)ccc4OC)ccc3OC)ccc2OC)cc1C(=O)NCCC(=O)O [Compound 300] | 272 nM | 462 nM | 311 nM | 3430 nM
